For one data set, the system named is wild-type 4T1 cells. The data set can be described thus: Cytotoxicity evaluation (CCK8 kit). Format: cell-based, mouse. The settings on record: FIG. 10A.
The test system of data set [1] is IL-10-treated 4T1 tumor cells. The data set can be described thus: Cytotoxicity evaluation (CCK8 kit). The format is cell-based, mouse. The settings on record: FIG. 10B.
Protocol: (§2) Absorbance was measured at 450 nm, and cytotoxicity was calculated by the following equation:
(§3) Cell viability=(A sample−A blank/A control−A blank)×100
(§4) A control=Absorbance value of the well which contains only cells and CCK8 solution
Data set [2] concerns M2 type macrophages (tumor-associated macrophages, TAM).
Protocol: as §2, §3, §4
The test system of the next data set is 4T1 tumor. The experiment in a line: In vivo anti-cancer and cancer metastasis inhibitory activity, orthotopic 4T1 tumor model. More on the design: species or system mouse. On the procedure:
Orthotropic 4T1 tumor model were produced by the implantation of 1×10^6 4T1 cells into the left mammary fat pad of the wild-type Balb/c mouse. Tumor was left to grow until its size reached approximately 100 mm^3, followed by random segregation of mice into separate groups for administration. Mice were separated into a total of six groups with five […] in each group. Peptides ([…] ID NO: 1) and […] fusion polypeptide (SEQ ID NO: 3), respectively) were administered via the tail vein of the mouse at an equimolar concentration (1 mM peptide 200/20 g body weight of mice, administered 3 times a week for 4 weeks). Mice of the other three groups were intraperitoneally administered with 8 mg/kg dosage concentration of paclitaxel once a week, in addition to the administration of the peptides. […] The weight and tumor size of the mice were observed after administration. The tumor size was measured with a digital caliper, and the volume of the tumor was calculated by the following equation: V=(L×W×H)/2 (L: the longest-length, W: Short length, H: height) The mice were sacrificed after the last dose, and metastasis of the tumor into the lungs and liver was evaluated. The excised tumors and organs were fixed in 4% PFA and used for additional immunohistological analysis. Frozen tumor tissues were blocked with a blocking solution of 1 g of BSA, 0.2 g of gelatin and 0.05 g of saponin dissolved in PBS, followed by incubation using primary antibodies for 11⁄2 hours and staining using HRP-labeled secondary antibodies for 45 minutes at room temperature. The stained tissues were exposed using DAB (DAKO) and a contrast dyeing was performed using hematoxylin for 5 minutes at room temperature. Each step moved onto the next one after washing with PBS containing 10% blocking solution. Finally, the tissues were observed by Bright Field Microscopy.

Data set [3] has as its target T1, IL-4 receptor (Mus musculus, UniProt P16382).
T1 construct: from tissue; host or cells: 4T1 tumour tissue in wild-type Balb/c mice (IL4R alpha knockout mice as negative control)
T1 sequence (P16382 26-810): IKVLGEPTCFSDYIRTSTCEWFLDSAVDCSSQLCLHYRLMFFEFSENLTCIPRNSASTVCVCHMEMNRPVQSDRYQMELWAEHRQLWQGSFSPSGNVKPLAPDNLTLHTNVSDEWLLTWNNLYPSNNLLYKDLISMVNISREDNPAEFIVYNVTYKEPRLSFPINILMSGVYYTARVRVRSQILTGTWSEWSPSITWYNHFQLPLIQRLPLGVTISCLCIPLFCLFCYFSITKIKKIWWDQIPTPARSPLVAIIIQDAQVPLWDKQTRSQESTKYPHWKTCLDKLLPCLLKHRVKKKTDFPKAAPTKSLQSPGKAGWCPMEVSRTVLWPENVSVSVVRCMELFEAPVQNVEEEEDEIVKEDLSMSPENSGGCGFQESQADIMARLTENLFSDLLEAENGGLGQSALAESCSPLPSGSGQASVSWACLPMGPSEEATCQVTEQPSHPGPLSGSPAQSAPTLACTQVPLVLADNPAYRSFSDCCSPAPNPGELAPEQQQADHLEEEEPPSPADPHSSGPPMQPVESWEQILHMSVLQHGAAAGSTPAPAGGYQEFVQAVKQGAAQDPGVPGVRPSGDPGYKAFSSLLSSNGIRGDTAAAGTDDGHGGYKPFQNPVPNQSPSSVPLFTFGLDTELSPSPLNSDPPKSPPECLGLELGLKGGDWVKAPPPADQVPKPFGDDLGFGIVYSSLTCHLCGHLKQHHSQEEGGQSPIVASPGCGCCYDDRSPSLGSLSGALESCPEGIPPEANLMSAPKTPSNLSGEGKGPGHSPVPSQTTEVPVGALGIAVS
The data set can be described thus: In vivo optical imaging and histological analysis of peptide binding in 4T1 tumor cells-transplanted mice. The settings on record: for fluorescence in tumor tissues: Flamma 675-labeled peptide, tail vein. An excerpt: Female wild-type Balb/c mice were purchased from Orient Bio (Republic of Korea) to prepare IL-4 receptor-deficient mice. Mouse tumor models were produced by subcutaneously injecting 1×10^6 4T1 tumor cells into the flank top skin of the wild-type and IL-4 receptor-deficient mice, respectively. Orthotopic animal models were produced by injecting 1×10^6 4T1 cells into the mammary fat tissue of the mice.
(§1) The Flamma 675-labeled IL4RPep-1 peptide (SEQ ID NO: 1) and control peptide (NSSSVDK) of SEQ ID NO: 7 were administered via the tail vein of 4T1 tumor cells-transplanted wild-type mice and the IL-4 receptor-deficient mice, respectively. In vivo imaging was conducted using the Optix imaging system (ART Inc., Canada) after one hour and two hours circulation. The mice were sacrificed after imaging, and tumors and organs were then excised for ex vivo imaging.
For immunohistochemical analysis, excised tumors were fixed with 4% PFA and dehydrated with 30% sucrose. 8 μm thick slices of the tumor were prepared and their histological structures were evaluated by DAPI staining.
Additionally, in order to analyze the tendency of […] of the peptide and the receptor in the tumor tissues, the tumor samples were immunostained with anti-IL4Rα antibodies and F4/80 antibodies, followed by detection with Alexa-488/594-conjugated secondary IgG antibodies (invitrogen).

For data set [4], the system named is IL-4 receptor. The data set can be described thus: Immunofluorescent staining of IL4RPep-1 bound to IL-4 receptors and cells. Format: cell-based. On the procedure: In order to test whether the peptides binds to cells, tumor cells were blocked with 1% BSA solution initially, 10 μM FITC-labeled IL4RPep1 peptides of SEQ ID NO: 1 were then incubated at 4° C. for 1 hour. The cells were washed and fixed with 4% PFA, while their nuclei were stained with DAPI.
To evaluate the expression level of IL-4 receptor in the cells or tumor tissues, immunostaining was performed on frozen tissue sections or fixed mouse tumor cell lines by using anti-IL-4R, anti-IL13Rα1 and anti-IL2R γC antibodies.
After being washed with PBS, the cells were incubated at room temperature for 1 hour with secondary antibodies. Finally, following nuclear staining with DAPI, the cells were examined by a fluorescence microscope (Zeiss, Germany).

For the next data set, the system named is IL-10-treated 4T1 cells. The experiment in a line: IL4RPep-1 binding affinity assay on IL-10-treated versus wild-type 4T1 cells. More on the design: species or system mouse. The settings on record: FIG. 9A. On the procedure:
Blocking the tumor cells with 1% BSA at room temperature for 30 minutes, the biotin-labeled IL4RPep-1 peptides of various concentrations (1 to 80 μM) were incubated for 1 hour. After washing with PBS, the cells were incubated with Neutravidin HRP (1: 10000) at room temperature for 30 minutes. HRP activity was measured by using the TMB substrate, and the reaction was stopped using 2M sulfuric acid. Absorbance was measured at 450 nm using TECAN microplate reader. Kd values were calculated using Graph Pad Prism 6 software (GraphPad software Inc., La Jolla, La.).
4T1 cells were cultured using DMEM medium containing 50% of the mouse spleen-derived macrophages which were differentiated into M2 type macrophages. As for the culture medium containing TAM, the debris was removed by centrifugation and strainer prior to use. Cytokine-induced epithelial mesenchymal transition was implemented by culturing the cells with mouse IL-10 and mouse IL-4 for 24 hours or with mouse TFGβ-containing medium for 48 hours. Subsequently, the cells were stained with N-cadherin (a mesenchymal marker), and the expression level of IL-4 receptor was evaluated.

The next data set has as its target T2, mouse IL-4 receptor (mouse, UniProt P16382 26-810).
T2 construct: whole, on cells; The target is endogenous receptor on mouse cells, not a purified protein; also called IL4R alpha
T2 sequence (looked up): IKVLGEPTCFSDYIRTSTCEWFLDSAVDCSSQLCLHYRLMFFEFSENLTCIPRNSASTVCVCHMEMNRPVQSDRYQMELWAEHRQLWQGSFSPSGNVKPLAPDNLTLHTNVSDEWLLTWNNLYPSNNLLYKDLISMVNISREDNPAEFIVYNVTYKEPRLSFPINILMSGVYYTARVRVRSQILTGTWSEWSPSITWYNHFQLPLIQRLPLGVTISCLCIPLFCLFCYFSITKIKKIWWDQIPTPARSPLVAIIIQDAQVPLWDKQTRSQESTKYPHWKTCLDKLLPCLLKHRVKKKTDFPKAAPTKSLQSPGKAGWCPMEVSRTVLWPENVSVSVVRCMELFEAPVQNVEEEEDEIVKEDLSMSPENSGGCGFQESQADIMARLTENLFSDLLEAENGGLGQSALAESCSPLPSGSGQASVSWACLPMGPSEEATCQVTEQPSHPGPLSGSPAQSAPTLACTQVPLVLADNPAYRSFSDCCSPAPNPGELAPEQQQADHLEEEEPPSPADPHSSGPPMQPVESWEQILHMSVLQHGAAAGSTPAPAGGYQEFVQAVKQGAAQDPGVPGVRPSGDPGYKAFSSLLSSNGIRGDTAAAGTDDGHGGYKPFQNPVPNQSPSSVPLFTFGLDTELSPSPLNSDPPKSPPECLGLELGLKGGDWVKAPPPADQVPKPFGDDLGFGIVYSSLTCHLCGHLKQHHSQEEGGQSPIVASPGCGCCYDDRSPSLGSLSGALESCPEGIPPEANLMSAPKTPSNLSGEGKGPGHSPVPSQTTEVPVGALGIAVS
The experiment in a line: in vivo and ex vivo fluorescence imaging, Flamma 675-labelled peptide, 4T1 tumor-bearing Balb/c mice. On the procedure: as §1
It was evaluated whether the IL4RPep-1 peptide having the amino acid sequence of SEQ ID NO: 1 specifically binds to IL-4 receptor in 4T1 tumor cells-transplanted Balb/c wild-type mice and Balb/c IL-4 receptor-deficient (knockout) mice, respectively. That is, Flamma 675-labeled IL4RPep-1 peptides and control peptides (NSSSVDK, SEQ ID NO: 7) were administered into the tail vein of the mouse, respectively, followed by real time observation for fluorescence intensity.

The mark [5] stands for this setting: frozen tumor sections, antibody staining, versus control group, FIG. 13.
The mark [6] stands for this setting: 4T1-transplanted wild-type Balb/c mice, in vivo and ex vivo.

Data on 4 molecules can be found in patent publication US20180201651A1, “PHARMACEUTICAL COMPOSITION THAT IS ANTICANCER AND SUPPRESSES CANCER METASTASIS, CONTAINING, AS ACTIVE INGREDIENT, FUSION PEPTIDE SIMULTANEOUSLY TARGETING CANCER CELL AND TUMOR ASSOCIATED MACROPHAGE” (Kyungpook National University Industry-Academic Cooperation …, priority 2015, published 2018).

Where no end group is shown, it is not given here.

Protocol for M1-type macrophages: as §2, §3, §4

Regarding “CRKRLDRNCGGGKLAKLAKKLAKLAK (Fusion peptide) [IL4RPep-1-KLA]”, the cytotoxicity result with M1-type macrophages is “insignificant”. In addition, in the data set with wild-type 4T1 cells, the cytotoxicity result is “insignificant”. Further, the cytotoxicity result in data set [1] was “excellent cytotoxicity”. For the same molecule, the cytotoxicity result in data set [2] is recorded as “excellent cytotoxicity”. In addition, the tumor growth entry with 4T1 tumor (Balb/c mice, tail vein, 3 times a week for 4 weeks, from administration until end of experiment, FIG. 11) is recorded as “significantly suppressed”. Besides, in the data set with 4T1 tumor (setting [5]), the “CD4(+) T cells in tumor tissue” value is recorded as “decreased”, the “CD8 (+) T cells in tumor tissue” value is on record as “increased”, the “CD80(+) macrophages in tumor tissue” value is recorded as “increased” and the “F4/80(+) tumor-associated macrophages in tumor tissue” value is “reduced”. Also, the “N-cadherins in tumor tissue” value with 4T1 tumor (setting [5]) was “reduced”. Also, in the data set on 4T1 tumor (organs excised after final administration, FIGS. 12A and 12B), the “metastasis of cancer in liver and lungs” value is given as “not observed at all”.
Take CRKRLDRNC [IL4RPep-1]: the “fluorescence in tumor tissues” value on IL-4 receptor [3] (4T1-transplanted IL-4 receptor-deficient (knockout) Balb/c mice) is “no fluorescence was detected”; on IL-4 receptor [3] (setting [6]), “strongly detected”. Besides, on IL-4 receptor [3] (IL-4 receptor-deficient mice, immunostaining, FIG. 4B), the “peptide binding in excised tumor tissue fragments” value is on record as “no binding”. In addition, on IL-4 receptor [3] (wild-type mice, immunostaining, FIG. 4A), the “peptide staining in excised tumor tissue fragments” value is “in the same pattern as that of IL-4 receptors”. Moreover, the “binding to cells versus expression pattern of IL-4 receptors” value in the data set with IL-4 receptor [4] (4T1, A549, MDA-MB 231, M1 and M2 type Raw 264.7 cells, FITC-labeled peptide 10 μM) is on record as “specifically bind to IL-4 receptors”. Further, the “binding pattern to cells versus expression pattern of IL-4 receptors” value in the data set on IL-4 receptor [4] (mouse spleen-derived M1 type and M2 type macrophages, FIG. 2A) was “the same as the expression pattern of IL-4 receptors”. Also, the “binding affinity in IL-10-treated 4T1 cells compared with wild-type 4T1 cells” value in the data set on IL-10-treated 4T1 cells is listed as “significantly excellent”.
Take “NSSSVDK [control peptide, reference compound]”: the “fluorescence in tumor tissues” value in the data set with IL-4 receptor [3] (setting [6]) is on record as “no fluorescence was detected”.
For NSSSVDK (also: Flamma 675 label, position not given here, Control peptide) [control peptide (NSSSVDK)], the binding result with mouse IL-4 receptor was “no binding”.
